Data: patent US20250213548A1, “PHARMACEUTICAL COMPOSITIONS FOR IMPROVING ORAL BIOAVAILABILITY” (Bristol-Myers Squibb Company, priority 2022, published 2025)

Key:
[1] = Oral absorption of formulated tablets of Compound (II) in cyno monkeys (PK); conditions: cynomolgus monkey, iv, 0.1 mg/kg
Experimental: (§1) Four coated tablets were added in each #00 gray opaque hard gelatin capsule for the cyno PK study. Each cyno monkey was dosed with 2 capsules (8 coated tablets).
(§2) Fasted male cyno monkeys (n=3) were dosed by oral route followed by gavage flush with water to facilitate gastro-intestinal dissolution. Blood samples were taken at predetermined times over 72 hours post-dose to measure comparative pharmacokinetics between the formulations. Due to the long half-life these were conducted in a parallel group design in different sets of cyno monkeys.

[2] = cynomolgus monkey, in vivo, iv, 0.1 mg/kg
Experimental: as §1, §2

in vivo [3] = conditions: cynomolgus monkey, iv
Experimental: as §1, §2

[4] = rat, in vivo
Experimental: The study was run as a two-treatment, two-segment, parallel study in anesthetized, fasted, male Sprague Dawley rats (rat weight: ˜300 g) with 4 rats per group.
For duodenal absorptional testing, the rats were ligated at pylorus (proximal) and the subject formulation was injected directly into duodenum 5 cm past pylorus ligation (about 15 cm from the pylorus) and the distal part of the segment was ligated to contain drug in intestinal segment.
Samples of the dosed solution from gastric and duodenal segments were extracted at 60 min to measure remaining drug concentrations.

in vivo [5] = conditions: beagle, dog, iv, 10 mg
Experimental: (§3) Fasted pentagastrin-pretreated male beagle dogs (n=4) were dosed by oral route followed by gavage flush with water to facilitate gastro-intestinal dissolution. Blood samples were taken at predetermined times over 72 hours post-dose to measure comparative pharmacokinetics between the formulations. Due to the long half-life these were conducted in a parallel group design in different sets of dogs.

in vivo [6] = conditions: dog, iv, 10 mg
Experimental: Dogs were administered formulations as follows: • 2×50 mg tablets with 10% API (Example 10, 88.6 mg dose after API potency correction) • 10×10-mg tablets with 10% API (Example 11, 88.6 mg dose after API potency correction) • 5×10 mg tablets with 10% API (Example 11, 44.3 mg dose after API potency correction) and 5 placebo tablets with enhancer only. • 10×5 mg tablets with 5% API (44.3 mg dose after API potency correction) • 40×2.5 mg tablets with 10% API (Example X, 100 mg dose after potency correction)

in vivo [7] = conditions: beagle, dog, iv, 10 mg; remark: listed apart in the source
Experimental: as §3

[8] = Oral absorption of prepared formulations of Compound (II) in dogs (Example 10, 70 mg); conditions: beagle, dog, blood, iv, 10 mg
Experimental: as §3

In the case of `CCCC[C@H]1C(=O)N(C)[C@@H](CCCC)C(=O)N[C@@H](CC(C)C)C(=O)N[C@H](C(=O)NCC(=O)N[C@@H](Cc2cn(CCOCCOCCCOCCCOCCOCCOCCOCCOCCOCCOCCOCCNC(=O)CC[C@H](NC(=O)CCCCCCCCCCCCCCCCC(=O)O)C(=O)O)nn2)C(=O)O)CSCC(=O)N[C@@H](Cc2ccc(O)cc2)C(=O)N(C)[C@@H](C)C(=O)N[C@@H](CC(N)=O)C(=O)N2CCC[C@H]2C(=O)N[C@@H](CN)C(=O)N[C@@H](CC(C)C)C(=O)N2C[C@H](O)C[C@H]2C(=O)N[C@@H](Cc2c[nH]c3ccccc23)C(=O)N[C@@H](CCN)C(=O)N[C@@H](Cc2cn(CC(=O)O)c3ccccc23)C(=O)N1C` [Compound (II)], the AUC(0-inf) ([1]; blood) is reported as 52 µM·h, the AUC(0-t) ([1]; in vivo) is reported as 47.6 µM·h and the Cmax ([1]; in vivo) is reported as 0.798 µM. For the same compound, the “BA (%) using AUCInf Mean” value [2] was 100.00%, the Tmax (in vivo [3]; 0.1 mg/kg) was 18 min and the level at time molar at 24 h (in vivo [3]; 0.1 mpk) was 0.544 µM. For the same compound, the “systemic absorption, intestinal compartment compared to the gastric compartment” value [4] was “good systemic absorption”, the AUC(0-inf) (in vivo [5]) was 402 µM·h and the Cmax (in vivo [5]) was 8.55 µM. The Tmax (in vivo [5]) was 12 min, the AUC(0-t) (in vivo [5]; AUC0-24 h (nM · h) Mean) was 126 µM·h and the AUC(0-t) (in vivo [5]; AUC0-t (nM · h)* Mean) was 322 µM·h. For the same compound, the Cmax (in vivo [6]) was 25500 ng/mL, the Tmax (in vivo [6]) was 12 min and the AUC(0-t) (in vivo [6]; AUC0-24 h (ng · h/mL) Mean) was 376 µg·h/mL. The AUC(0-t) (in vivo [6]; AUC0-72 h (ng · h/mL) Mean) was 833 µg·h/mL, the Tmax (in vivo [7]) was 12 min and the AUC(0-inf) [8] was 402 µM·h. It also gave a Cmax [8] of 8.55 µM.
